Assay results published in publication PMC8280143, “A novel dephosphorylation targeting chimera selectively promoting tau removal in tauopathies” (Signal Transduction and Targeted Therapy, 2021).
No end group written: not given here. *: point of attachment. FITC = O=C1OC2(c3ccc(O)cc3Oc3cc(O)ccc32)c2ccc(NC(=S)*)cc21

Tests used:
[1] = tested on: inositol monophosphatase; conditions: cited from earlier work
Source text: (§1) By contrast, small-molecular kinase inhibitors or phosphatase enhancers generally lack specificity. […] This might bring unacceptable side-effects in the clinic. Importantly, the principle of DEPTAC can be used in future studies to design alternative chimeras specifically targeting many other types of post-tr ...

[2] = tested on: tau; conditions: cited from earlier work
Source text: as §1

[3] = tested on: glycogen synthase kinase-3; conditions: cited from earlier work
Source text: as §1

[4] = tested on: PP2A-Bα (PPP2R1A); test: Fluorescence polarization binding assay, PP2A-Bα; set-up: species or system human; conditions: 0.1 μM FITC-labeled DEPTAC; serial dilutions of PP2A-Bα; 20 mM Tris-HCl, 150 mM NaCl, 0.5 mM DTT, pH 7.4; 37 °C, 30 min
Description: (§2) Purified human tau and PP2A-Bα (PPP2R1A) were obtained from AtaGenix (Wuhan, China), and concentrated using ultrafiltration tubes (Beyotime). In basic binding assays, tau or PP2A-Bα was aliquoted into serial dilutions with a buffer containing 20 mM Tris-HCl, 150 mM NaCl, and 0.5 mM 1,4-Dithiothreitol (pH 7.4), and incubated with 0.1 μM FITC-labeled DEPTAC, FITC-labeled control peptide and FITC (9:1 vol/vol), respectively, in a black 384-well plates (Corning) under 37 °C for 30 min. In competition binding assays, a mixture of 2.5 μM tau or PP2A-Bα and 0.1 μM FITC-labeled DEPTAC were incubated with increasing amounts of unlabeled-DEPTAC under 37 °C for 30 min. Fluorescence intensity was measured by a Biotek Synergy 2 microplate reader with the wavelengths of 480 nm (60) (Ex)/560 nm (40) (Em). The polarization measurements were corrected for background contributions to the measured intensity by subtracting the parallel and perpendicular intensity readings by the vehicle-only wells from the intensity readings for each data point. Fluorescence polarization (P) was calculated by the formula P = (I║ − I┴) / (I║ + I┴), where I║ was the intensity of emitted light polarized parallel to the excitation light, and I┴ was the intensity of emitted light polarized perpendicular to the excitation light.

[5] = tested on: human tau; test: Fluorescence polarization binding assay, tau; conditions: 0.1 μM FITC-labeled DEPTAC; serial dilutions of tau; 20 mM Tris-HCl, 150 mM NaCl, 0.5 mM DTT, pH 7.4; 37 °C, 30 min
Description: as §2

FITC-DEPTAC fluorescence polarization with increased amount of PP2A-Bα [4] | FITC-DEPTAC fluorescence polarization with increased amount of tau [5] | Compound | action on inositol monophosphatase [1] | suppression of tau hyperphosphorylation [2] | action on glycogen synthase kinase-3 [3]
– | – | [Li] [lithium] | acts on other targets | suppress tau hyperphosphorylation | acts on other targets
sigmoidal increases | sigmoidal increases | FITC-DEPTAC: For tracing the chimera, a fluorescein FITC was conjugated at the K18 residue (YQQYQDATADEQGGSGSK(FITC)KVAVVRTPPKSPRRRRRRRR) | – | – | –
